A value given as a limit tells only on which side of the number the result lay.

The first test deals with Mycosphaerella arachidis (Cercospora arachidicola). The test can be described thus: Example A7: Mycosphaerella arachidis (Cercospora arachidicola) / liquid culture (early leaf spot). The format is cell-based. The conditions noted are these: 4-5 days after application, compared to untreated control.
For orientation: inhibition of growth means the drop in the measured response relative to a control, in per cent. In turn, `Cc1sc(N(C#N)c2cc(F)nc(F)c2)nc1C(=O)NCC(C)C` [X.15, 2-[cyano-(2,6-difluoro-4-pyridyl)amino]-N-isobutyl-5-methyl-thiazole-4-carboxamide] had an inhibition of growth at 20 ppm of at least 80%.

The test system of the next test is Puccinia recondita f. sp. tritici.
Assay: not given
The conditions noted are these: in Triticum aestivum, foliar, read-out: control of Puccinia recondita f, sp. tritici.
On to `Cc1sc(N(C#N)c2cc(F)nc(F)c2)nc1C(=O)NC1CCC1` [X.02, 2-[cyano-(2,6-difluoro-4-pyridyl)amino]-N-cyclobutyl-5-methyl-thiazole-4-carboxamide], for which the pest or weed control at 200 ppm is at least 80%.

As for `Cc1sc(N(C#N)c2cc(F)cc(F)c2)nc1C(=O)NC1CCC1(C)C` (stereo not drawn) [X.03, 2-(N-cyano-3,5-difluoro-anilino)-N-(2,2-dimethylcyclobutyl)-5-methyl-thiazole-4-carboxamide], the pest or weed control at 200 ppm is at least 80%.

Consider `Cc1sc(N(C#N)c2cc(F)nc(F)c2)nc1C(=O)NC1CCC1(C)C` (stereo not drawn) [X.05, 2-[cyano-(2,6-difluoro-4-pyridyl)amino]-N-(2,2-dimethylcyclobutyl)-5-methyl-thiazole-4-carboxamide], for which the pest or weed control at 200 ppm was at least 80%.

For the molecule `Cc1sc(N(C#N)c2cc(F)nc(F)c2)nc1C(=O)NC1CCC12CCCC2` (stereo not drawn) [X.07, 2-[cyano-(2,6-difluoro-4-pyridyl)amino]-5-methyl-N-spiro[3.4]octan-3-yl-thiazole-4-carboxamide], the pest or weed control at 200 ppm is at least 80%.

Turning to `Cc1sc(N(C#N)c2cc(F)nc(F)c2)nc1C(=O)NC1CCC12Cc1ccccc1C2` (stereo not drawn) [X.08, 2-[cyano-(2,6-difluoro-4-pyridyl)amino]-5-methyl-N-spiro[cyclobutane-2,2′-indane]-1-yl-thiazole-4-carboxamide], the pest or weed control at 200 ppm was at least 80%.

Turning to `Cc1sc(N(C#N)c2cc(F)nc(F)c2)nc1C(=O)NC1CCC12CCC2` (stereo not drawn) [X.09, 2-[cyano-(2,6-difluoro-4-pyridyl)amino]-5-methyl-N-spiro[3.3]heptan-3-yl-thiazole-4-carboxamide], the pest or weed control at 200 ppm was at least 80%.

`Cc1sc(N(C#N)c2cc(F)nc(F)c2)nc1C(=O)NCC1(CC2CC2)CC1` [X.10, 2-[cyano-(2,6-difluoro-4-pyridyl)amino]-N-[[1-(cyclopropylmethyl)cyclopropyl]methyl]-5-methyl-thiazole-4-carboxamide]: the pest or weed control at 200 ppm is at least 80%.

For `Cc1sc(N(C#N)c2cc(F)cc(F)c2)nc1C(=O)NC1(C)CCCC1` [X.11, 2-(N-cyano-3,5-difluoro-anilino)-5-methyl-N-(1-methylcyclopentyl)thiazole-4-carboxamide], the pest or weed control at 200 ppm is at least 80%.

With `Cc1sc(N(C#N)c2cc(F)nc(F)c2)nc1C(=O)NC1(C)CCCC1` [X.12, 2-[cyano-(2,6-difluoro-4-pyridyl)amino]-5-methyl-N-(1-methylcyclopentyl)thiazole-4-carboxamide], the pest or weed control at 200 ppm was at least 80%.

As for `CCCCCCNC(=O)c1nc(N(C#N)c2cc(F)nc(F)c2)sc1C` [X.14, 2-[cyano-(2,6-difluoro-4-pyridyl)amino]-N-hexyl-5-methyl-thiazole-4-carboxamide], the pest or weed control at 200 ppm was at least 80%.

Turning to `Cc1sc(N(C#N)c2cc(F)nc(F)c2)nc1C(=O)NCC(C)C` [X.15, 2-[cyano-(2,6-difluoro-4-pyridyl)amino]-N-isobutyl-5-methyl-thiazole-4-carboxamide], the pest or weed control at 200 ppm is at least 80%.

For `Cc1sc(N(C#N)c2cc(F)nc(F)c2)nc1C(=O)NC(C)c1ccccc1` (stereo not drawn) [X.16, 2-[cyano-(2,6-difluoro-4-pyridyl)amino]-5-methyl-N-(1-phenylethyl)thiazole-4-carboxamide], the pest or weed control at 200 ppm is at least 80%.

For `Cc1sc(N(C#N)c2cc(F)nc(F)c2)nc1C(=O)NCC(C)(C)C` [X.18, 2-[cyano-(2,6-difluoro-4-pyridyl)amino]-N-(2,2-dimethylpropyl)-5-methyl-thiazole-4-carboxamide], the pest or weed control at 200 ppm was at least 80%.

For `CCCCCNC(=O)c1nc(N(C#N)c2cc(F)nc(F)c2)sc1C` [X.20, 2-[cyano-(2,6-difluoro-4-pyridyl)amino]-5-methyl-N-pentyl-thiazole-4-carboxamide], the pest or weed control at 200 ppm is at least 80%.

Turning to `Cc1sc(N(C#N)c2cc(F)nc(F)c2)nc1C(=O)NCc1ccccc1` [X.23, N-benzyl-2-[cyano-(2,6-difluoro-4-pyridyl)amino]-5-methyl-thiazole-4-carboxamide], the pest or weed control at 200 ppm was at least 80%.

In the case of `CCCCNC(=O)c1nc(N(C#N)c2cc(F)nc(F)c2)sc1C` [X.24, N-butyl-2-[cyano-(2,6-difluoro-4-pyridyl)amino]-5-methyl-thiazole-4-carboxamide], the pest or weed control at 200 ppm is at least 80%.

The next test has as its system Glomerella lagenarium (Colletotrichum lagenarium). The test can be described thus: Example A3: Glomerella lagenarium (Colletotrichum lagenarium) / liquid culture (anthracnose). The conditions noted are these: Colletotrichum orbiculare, 3-4 days after application, compared to untreated control. In kind it is cell-based.
`CCCCCNC(=O)c1nc(N(C#N)c2cc(F)nc(F)c2)sc1C` [X.20, 2-[cyano-(2,6-difluoro-4-pyridyl)amino]-5-methyl-N-pentyl-thiazole-4-carboxamide] showed an inhibition of growth at 20 ppm of at least 80%.
